According to the NIST ThermoML archive (doi:10.1021/je900570e):

Assay: xn = mol fraction of the nth substance listed
Details: Liquid; for viscosity / speed of sound: 101 kPa; for viscosity: Capillary tube (Ostwald / Ubbelohde) method; for speed of sound: Frequency=2 MHz, Pulse-echo method; for mass density: 101.33 kPa, Vibrating tube method

N#CCc1ccccc1 [benzeneacetonitrile] + ClC(Cl)C(Cl)Cl
Details | mass density, 303.15 K [kg/m3] | mass density, 308.15 K [kg/m3] | mass density, 313.15 K [kg/m3] | speed of sound, 303.15 K [m/s] | speed of sound, 308.15 K [m/s] | speed of sound, 313.15 K [m/s] | viscosity, 303.15 K [mPa·s] | viscosity, 308.15 K [mPa·s] | viscosity, 313.15 K [mPa·s]
x1 = 0.0221 | 1566.5 | 1558.5 | 1551.7 | 1142 | 1125 | 1107.4 | 1.489 | 1.376 | 1.277
x1 = 0.1374 | 1497.2 | 1490.1 | 1483.5 | 1179.7 | 1166.3 | 1154.6 | 1.661 | 1.528 | 1.413
x1 = 0.2564 | 1426.9 | 1420 | 1413.8 | 1220.9 | 1209.3 | 1201.6 | 1.838 | 1.678 | 1.544
x1 = 0.3743 | 1358.8 | 1351.7 | 1345.9 | 1263.5 | 1251.5 | 1245.6 | 1.954 | 1.775 | 1.63
x1 = 0.4799 | 1297.2 | 1291.5 | 1285.9 | 1303.1 | 1289.9 | 1283.9 | 2.011 | 1.837 | 1.674
x1 = 0.5852 | 1236.4 | 1231.7 | 1226.2 | 1343.4 | 1329.5 | 1323.9 | 2.017 | 1.832 | 1.682
x1 = 0.7131 | 1164.2 | 1160.2 | 1154.9 | 1393.9 | 1381 | 1373.2 | 1.966 | 1.796 | 1.645
x1 = 0.8414 | 1093.9 | 1089.9 | 1085 | 1446.4 | 1436.5 | 1426.2 | 1.894 | 1.725 | 1.597
x1 = 0.9748 | 1022.5 | 1018.2 | 1013.5 | 1504.3 | 1497.2 | 1487.4 | 1.772 | 1.617 | 1.503
x1 = 1 | 1008.8 | 1004.1 | 999.5 | 1519.2 | 1512.9 | 1503.4 | 1.761 | 1.602 | 1.489

N#CCc1ccccc1 [benzeneacetonitrile] + ClC=C(Cl)Cl
Details | mass density, 303.15 K [kg/m3] | mass density, 308.15 K [kg/m3] | mass density, 313.15 K [kg/m3] | speed of sound, 303.15 K [m/s] | speed of sound, 308.15 K [m/s] | speed of sound, 313.15 K [m/s] | viscosity, 303.15 K [mPa·s] | viscosity, 308.15 K [mPa·s] | viscosity, 313.15 K [mPa·s]
x1 = 0.0195 | 1437 | 1428.5 | 1420 | 1024.6 | 1004.9 | 992.5 | 0.5201 | 0.486 | 0.4908
x1 = 0.119 | 1383.8 | 1377.2 | 1369.5 | 1073.5 | 1057.5 | 1045.8 | 0.5905 | 0.553 | 0.5292
x1 = 0.2263 | 1329.5 | 1323.9 | 1316.9 | 1128.2 | 1114.1 | 1102.9 | 0.6901 | 0.6417 | 0.6092
x1 = 0.3478 | 1271.9 | 1266.3 | 1260.1 | 1191 | 1179.2 | 1169.9 | 0.82 | 0.7558 | 0.715
x1 = 0.4396 | 1230.2 | 1225 | 1219.2 | 1238.9 | 1228.9 | 1221.9 | 0.9316 | 0.8529 | 0.7976
x1 = 0.5443 | 1184.5 | 1179.6 | 1174.2 | 1293.3 | 1284.6 | 1279.3 | 1.066 | 0.9721 | 0.9137
x1 = 0.6782 | 1128.8 | 1124.7 | 1119.5 | 1364.1 | 1356.5 | 1351 | 1.248 | 1.147 | 1.075
x1 = 0.819 | 1074.1 | 1070.3 | 1064.9 | 1435.8 | 1428.4 | 1425 | 1.456 | 1.339 | 1.248
x1 = 0.9692 | 1019.7 | 1015.3 | 1010.2 | 1504.1 | 1502.7 | 1499.2 | 1.698 | 1.546 | 1.439
x1 = 1 | 1008.8 | 1004.1 | 999.5 | 1519.2 | 1512.9 | 1503.4 | 1.761 | 1.602 | 1.489

ClCC(Cl)Cl [1,1,2-trichloroethane] + N#CCc1ccccc1
Details | mass density, 303.15 K [kg/m3] | mass density, 308.15 K [kg/m3] | mass density, 313.15 K [kg/m3] | speed of sound, 303.15 K [m/s] | speed of sound, 308.15 K [m/s] | speed of sound, 313.15 K [m/s] | viscosity, 303.15 K [mPa·s] | viscosity, 308.15 K [mPa·s] | viscosity, 313.15 K [mPa·s]
x2 = 0 | 1425 | 1416.1 | 1409.6 | 1129.2 | 1115.9 | 1096.1 | 1.019 | 0.9483 | 0.8888
x2 = 0.0185 | 1415.6 | 1407.2 | 1400.5 | 1137 | 1125 | 1105.9 | 1.046 | 0.9728 | 0.9045
x2 = 0.1212 | 1364.9 | 1358.6 | 1351.2 | 1176.7 | 1168.2 | 1150.9 | 1.158 | 1.064 | 0.9825
x2 = 0.2319 | 1312.6 | 1307.3 | 1300.6 | 1219.7 | 1214.2 | 1199.9 | 1.264 | 1.163 | 1.074
x2 = 0.3463 | 1261.1 | 1256.2 | 1250.2 | 1263.4 | 1261.9 | 1248.1 | 1.365 | 1.259 | 1.169
x2 = 0.445 | 1218.6 | 1214 | 1208.4 | 1301 | 1301.5 | 1288.9 | 1.454 | 1.336 | 1.242
x2 = 0.5545 | 1173.4 | 1168.9 | 1163.6 | 1342.8 | 1343.3 | 1332.8 | 1.545 | 1.411 | 1.307
x2 = 0.6861 | 1121.7 | 1117.3 | 1112.1 | 1393.4 | 1392.9 | 1383.2 | 1.631 | 1.491 | 1.381
x2 = 0.8245 | 1070.3 | 1065.7 | 1060.7 | 1446.6 | 1445.1 | 1431.8 | 1.706 | 1.561 | 1.436
x2 = 0.972 | 1018.4 | 1013.7 | 1009 | 1505.3 | 1498.7 | 1488.9 | 1.758 | 1.595 | 1.477

N#CCc1ccccc1 [benzeneacetonitrile] + ClC(Cl)=C(Cl)Cl
Details | mass density, 303.15 K [kg/m3] | mass density, 308.15 K [kg/m3] | mass density, 313.15 K [kg/m3] | speed of sound, 303.15 K [m/s] | speed of sound, 308.15 K [m/s] | speed of sound, 313.15 K [m/s] | viscosity, 303.15 K [mPa·s] | viscosity, 308.15 K [mPa·s] | viscosity, 313.15 K [mPa·s]
x1 = 0.0231 | 1591.9 | 1583 | 1575.7 | 1037.5 | 1024.4 | 1010.5 | 0.8124 | 0.7752 | 0.746
x1 = 0.1322 | 1520.1 | 1512.1 | 1505.3 | 1082.9 | 1070.9 | 1060.1 | 0.884 | 0.8382 | 0.8001
x1 = 0.249 | 1445.2 | 1438 | 1431.6 | 1133.9 | 1123.3 | 1113.4 | 0.9577 | 0.9171 | 0.868
x1 = 0.37 | 1369.8 | 1363.1 | 1357.1 | 1188.9 | 1178.8 | 1168.9 | 1.06 | 0.9982 | 0.9342
x1 = 0.4713 | 1308.3 | 1302 | 1296.2 | 1236.8 | 1226.7 | 1216.8 | 1.159 | 1.077 | 1.003
x1 = 0.5767 | 1245.7 | 1239.8 | 1234.3 | 1288.5 | 1278.5 | 1268.9 | 1.269 | 1.172 | 1.096
x1 = 0.7051 | 1171.4 | 1166.1 | 1160.8 | 1355 | 1345 | 1335.7 | 1.413 | 1.294 | 1.207
x1 = 0.8386 | 1096.5 | 1091.6 | 1086.6 | 1428 | 1419.2 | 1409.3 | 1.571 | 1.43 | 1.329
x1 = 0.972 | 1023.9 | 1019.2 | 1014.5 | 1504.1 | 1497.9 | 1486.1 | 1.726 | 1.57 | 1.458
x1 = 1 | 1008.8 | 1004.1 | 999.5 | 1519.2 | 1512.9 | 1503.4 | 1.761 | 1.602 | 1.489

N#CCc1ccccc1 [benzeneacetonitrile] + ClCCCl
Details | mass density, 303.15 K [kg/m3] | mass density, 308.15 K [kg/m3] | mass density, 313.15 K [kg/m3] | speed of sound, 303.15 K [m/s] | speed of sound, 308.15 K [m/s] | speed of sound, 313.15 K [m/s] | viscosity, 303.15 K [mPa·s] | viscosity, 308.15 K [mPa·s] | viscosity, 313.15 K [mPa·s]
x1 = 0.0165 | 1233.5 | 1225.3 | 1218.7 | 1182.2 | 1171.9 | 1161 | 0.7352 | 0.6821 | 0.6456
x1 = 0.1059 | 1205.5 | 1198.9 | 1191.5 | 1221.2 | 1211.5 | 1200.5 | 0.8165 | 0.7512 | 0.708
x1 = 0.2041 | 1177.1 | 1171 | 1163.5 | 1262.4 | 1252.3 | 1243.7 | 0.9029 | 0.8313 | 0.7877
x1 = 0.3088 | 1149.2 | 1143.5 | 1136.1 | 1304.2 | 1293.6 | 1285.3 | 1.003 | 0.9258 | 0.8746
x1 = 0.4073 | 1124.8 | 1119.4 | 1111.8 | 1339.5 | 1330.8 | 1320.8 | 1.103 | 1.017 | 0.9576
x1 = 0.5122 | 1100.7 | 1095.6 | 1087.6 | 1374.8 | 1367.5 | 1355.9 | 1.213 | 1.117 | 1.048
x1 = 0.648 | 1072 | 1067.2 | 1058.8 | 1418.6 | 1411.8 | 1399.9 | 1.365 | 1.248 | 1.165
x1 = 0.8003 | 1042.8 | 1038.2 | 1029.5 | 1465.2 | 1458.9 | 1447.6 | 1.536 | 1.398 | 1.299
x1 = 0.9705 | 1013.6 | 1008.8 | 999.9 | 1512.6 | 1505.4 | 1499.1 | 1.725 | 1.568 | 1.456
x1 = 1 | 1008.8 | 1004.1 | 999.5 | 1519.2 | 1512.9 | 1503.4 | 1.761 | 1.602 | 1.489
